Results reported in patent US20250223262A1, “[…] OF […] REDUCED HERG ACTIVITY AND MOP BINDING” (Heinrich-Heine-Universität Düsseldorf, priority 2022, published 2025).

Assays:
[1] = biological target: T1, hERG (potassium voltage-gated channel subfamily H member 2) (Homo sapiens, UniProt Q12809); assay: hERG channel binding assay ([3H] Dofetilide); conditions: human, HEK-293 cells (hERG channel binding assay), probe [3H] Dofetilide; 10 μM, [3H] Dofetilide, HEK-293 cells, 2 repetitions; read-out: hERG inhibition (% inhibition of the binding of a ligand specific for the target)
T1 construct: expressed in transfected cells; host or cells: HEK-293
Procedure: (§1) For the hERG channel binding assay, compound binding was calculated as % inhibition of the binding of a radioactively labeled ligand that is specific for the target (i.e., [3H] Dofetilide). HEK-293 cells (human embryonic kidney cells) were used for these binding assays. The compounds were tested at a concentration of 10 μM and 2 repetitions were conducted for each compound.

[2] = Intraperitoneal glucose tolerance test and plasma insulin (in vivo); set-up: species or system mice; conditions: for effect on blood glucose concentration compared to control: glucose tolerance test in vivo
Procedure: (A) n=8 mice for control and n=7 mice for Kom56, (D) n=8 mice each. (B,E) Blood glucose concentrations of mice during i.p. glucose tolerance tests with 1.5 mg/g BW glucose with or without i.p. compound administration. n=8 mice each. (C,F) AUC0-120min calculation of blood glucose concentrations of B,E. Statistical testing: (A,D) two-way ANOVA followed by Sidak's multiple comparison test. (B,C,E,F) unpaired two-sided Student's t-test. All values are shown with mean±SEM, except for glucose tolerance tests (B,E), in which all values are mean±SD.
Further, glucose tolerance tests (in vivo) were performed, if the corresponding in vitro assays were “positive”.
Glucose tolerance tests for the compounds were performed like in paragraph [0209].

[3] = system: SafetyScreen44™ Panel with all 44 targets; assay: SafetyScreen44 Panel toxicological test; conditions: test concentration 1.0 10^−5 M
Procedure: Inhibition of potassium voltage-gated channel subfamily H member 2 (hERG) of the compounds was measured as in the SafetyScreen44™ Panel (see Example 3). The hERG channel binding assay is part of the SafetyScreen44™ Panel, but can also be conducted solely. The entire SafetyScreen44™ Panel with all 44 targets was just conducted for the three compounds as shown in [0206], for the other molecules just the hERG inhibition was measured.

[4] = biological target: T2, potassium voltage-gated channel subfamily H member 2 (hERG) (Homo sapiens, UniProt Q12809); assay: hERG channel binding assay ([3H] Dofetilide); conditions: SafetyScreen44 Panel, test concentration 1.0 10^−5 M
T2 construct: expressed in transfected cells; host or cells: HEK-293
Procedure: as §1

[5] = biological target: μ-opioid (MOP) receptor (Homo sapiens, UniProt P35372); assay: MOP receptor inhibition, SafetyScreen44 Panel; format: binding; conditions: test concentration 1.0 10^−5 M
[6] = system: mouse pancreatic islets; assay: Insulin secretion assay on isolated pancreatic islets (in vitro); format: cell-based; conditions: low (2 mM) and high glucose (20 mM), FIG. 1
Procedure: Statistical testing: two-way ANOVA followed by Sidak's multiple comparison test. All values are shown with mean±SEM.
Further, insulin secretion assays (in vitro) were performed.
Insulin secretion assays for the compounds were performed like in paragraph [0208].

[7] = Oral glucose tolerance test and plasma insulin (in vivo); conditions: mice, FIG. 3
Procedure: (B) Blood glucose concentrations of mice during oral glucose tolerance test with 1.5 mg/g BW glucose with or without p.o. compound administration. n=7 mice for control and n=8 mice for Kom56. (C) AUC0-120min calculation of blood glucose concentrations of B. Statistical testing: (A) two-way ANOVA followed by Sidak's multiple comparison test. (B,C) unpaired two-sided Student's t-test. All values are shown with mean±SEM, except for glucose tolerance test (B), in which all values are mean±SD.

[8] = Von Frey monofilament paw withdrawal test; format: in vivo; conditions: mice, i.p. administration, paw withdrawal thresholds versus PBS, FIG. 5
Excerpt: (A) Force that is needed to reach a 50% threshold, and (B) force that is needed to reach a 75% threshold in paw withdrawal. n=6 mice each. Statistical testing: (A,B) unpaired two-sided Student's t-test. All values are shown with mean±SEM.

[9] = system: mouse pancreatic islets; assay: Islet cell death induced by oxidative stress (H2O2), flow cytometry; format: cell-based; conditions: 150 μM H2O2, 1 and 0.1 μM Kom56, 24 h, FIG. 6
Procedure: (A) Healthy control, (B) pancreatic islets incubated with 150 μM H2O2, (C) 150 μM H2O2 plus 1 μM Kom56, and (D) 150 μM H2O2 plus 0.1 μM Kom56. Analyzed by flow cytometry. Pancreatic islets were dissociated using trypsin and stained with Fixable Viability Stain 660 (FVS660). FVS660+=dead cells, FVS660-=living cells, values are shown in %.

[10] = system: mouse pancreatic islets; assay: Streptozotocin-induced islet cell death; format: cell-based; conditions: 2 mM streptozotocin, 1 μM Kom56, 24 h, FIG. 7
Excerpt: Blue (Hoechst), nuclei; red (ethidium homodimer1), dead cells; green (calcein), viable cells. (B) Area of dead cells in mouse islets treated as described in A. n=4 islet batches each with 11-14 islets per batch for each group. Statistical testing: (B) one-way ANOVA followed by Tukey's multiple comparison test. All values are shown with mean±SEM. (A) Scale bars, 50 μm.

T2 sequence (Q12809 whole entry): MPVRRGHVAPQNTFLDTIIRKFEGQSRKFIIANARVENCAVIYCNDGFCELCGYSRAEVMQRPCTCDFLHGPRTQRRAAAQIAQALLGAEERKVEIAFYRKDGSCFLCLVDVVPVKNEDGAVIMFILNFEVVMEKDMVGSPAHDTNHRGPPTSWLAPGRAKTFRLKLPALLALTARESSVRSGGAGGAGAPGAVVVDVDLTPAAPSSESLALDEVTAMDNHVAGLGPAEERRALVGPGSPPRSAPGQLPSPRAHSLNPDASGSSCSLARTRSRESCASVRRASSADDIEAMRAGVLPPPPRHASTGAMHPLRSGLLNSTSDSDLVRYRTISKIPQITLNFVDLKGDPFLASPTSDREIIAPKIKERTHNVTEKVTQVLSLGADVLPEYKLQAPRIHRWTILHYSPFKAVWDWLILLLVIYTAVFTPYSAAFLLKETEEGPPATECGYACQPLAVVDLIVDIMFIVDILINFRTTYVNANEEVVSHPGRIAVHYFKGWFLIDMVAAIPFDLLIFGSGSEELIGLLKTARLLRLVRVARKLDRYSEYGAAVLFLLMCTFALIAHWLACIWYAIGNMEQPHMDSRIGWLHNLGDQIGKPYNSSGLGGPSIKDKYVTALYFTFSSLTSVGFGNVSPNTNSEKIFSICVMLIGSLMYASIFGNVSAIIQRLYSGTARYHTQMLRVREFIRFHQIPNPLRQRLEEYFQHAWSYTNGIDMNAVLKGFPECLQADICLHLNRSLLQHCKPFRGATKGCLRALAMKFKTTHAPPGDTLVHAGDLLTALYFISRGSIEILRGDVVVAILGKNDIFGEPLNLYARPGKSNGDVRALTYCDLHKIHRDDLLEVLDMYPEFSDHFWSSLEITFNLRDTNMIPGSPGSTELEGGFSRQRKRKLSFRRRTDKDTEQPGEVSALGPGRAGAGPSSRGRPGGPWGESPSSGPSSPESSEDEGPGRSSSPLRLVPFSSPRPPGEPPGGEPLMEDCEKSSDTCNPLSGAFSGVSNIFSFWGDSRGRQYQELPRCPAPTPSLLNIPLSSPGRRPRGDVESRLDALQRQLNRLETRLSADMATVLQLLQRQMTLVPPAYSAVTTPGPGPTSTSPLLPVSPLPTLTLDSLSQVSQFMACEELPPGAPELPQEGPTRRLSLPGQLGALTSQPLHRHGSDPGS
μ-opioid (MOP) receptor, sequence (P35372 whole entry): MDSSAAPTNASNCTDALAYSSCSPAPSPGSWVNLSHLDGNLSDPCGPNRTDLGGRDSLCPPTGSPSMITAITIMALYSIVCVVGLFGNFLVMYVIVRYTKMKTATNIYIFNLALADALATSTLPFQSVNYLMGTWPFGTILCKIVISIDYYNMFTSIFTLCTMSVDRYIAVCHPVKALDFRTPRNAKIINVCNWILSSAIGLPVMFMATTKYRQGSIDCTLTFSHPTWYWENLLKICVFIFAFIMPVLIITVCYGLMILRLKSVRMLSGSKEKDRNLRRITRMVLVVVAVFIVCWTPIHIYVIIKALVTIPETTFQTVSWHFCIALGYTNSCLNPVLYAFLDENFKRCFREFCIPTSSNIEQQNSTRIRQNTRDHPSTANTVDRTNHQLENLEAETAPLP
T1 sequence (Q12809 whole entry): as the sequence (Q12809 whole entry) above

Row | Compound | effect on blood glucose concentration compared to control [2] | toxicology (hits with over 50% inhibition) [3] | hERG inhibition [%] [4] [%] | inhibition at 10 µM [5] [%] | further results
1 | COc1cc2c(cc1N1CC(N(C)C)C1)C[C@H]1C3CCCC[C@@]23CCN1C (stereo partly drawn) [Compound 35, 1-[(1S,9S)-4-methoxy-17-methyl-17-azatetracyclo[7.5.3.0^1,^10,0^2,^7]heptadeca-2(7),3,5-trien-5-yl]-N,N-dimethylazetidin-3-amine] | slightly positive effect |  |  |  | inhibition at 10 µM [1]: < 15%
2 | Br.Br.COc1cc2c(cc1-n1ccnc1)C[C@H]1[C@H]3CCCC[C@@]23CCN1C [DXM-2, (9S, 13S, 14S)-2-(1H-Imidazol-1-yl)-3-methoxy-17-methyl morphinan dihydrobromide] |  | 7 | 51.8 | 83.6 | 
3 | 4-[(1S,9S)-4-methoxy-17-methyl-17-azatetracyclo[7.5.3.0^1,^10,0^2,^7]heptadeca-2(7),3,5-trien-5-yl]-1-methylpiperazin-2-one [Compound 36] | slightly positive effect |  |  |  | 
4 | COc1ccc2c(c1)[C@]13CCCC[C@@H]1[C@H](C2)N(C)CC3 [DXM, dextromethorphan] |  | 6 | 20.9 | 85 | 
5 | COc1cc2c(cc1NC(=O)c1cncn1C)C[C@H]1C3CCCC[C@@]23CCN1C (stereo partly drawn) [Compound 7, N-[(1S,9S)-4-methoxy-17-methyl-17-azatetracyclo[7.5.3.0^1,^10,0^2,^7]heptadeca-2(7),3,5-trien-5-yl]-1-methyl-1H-imidazole-5-carboxamide] | significant effect |  | 7.9 |  | MOP inhibition [%] [5]: 33.7%; glucose-stimulated insulin secretion from mouse pancreatic islets [6]: increases the glucose-stimulated insulin secretion; plasma insulin concentrations ([2]; mice, 30 min after i.p. administration together with glucose, FIG. 2): increases plasma insulin concentrations; glucose tolerance ([2]; mice, i.p. glucose tolerance test, 1.5 mg/g BW glucose, i.p. compound, FIG. 2): improves glucose tolerance; plasma insulin concentrations ([7]; 30 min after p.o. administration together with glucose): increases plasma insulin concentrations; glucose tolerance ([7]; oral glucose tolerance test, 1.5 mg/g BW glucose, p.o. compound): improves glucose tolerance; touch sensitivity during mechanical stimulation with Von Frey monofilaments [8]: reduces touch sensitivity; protection from cell death induced by oxidative stress [9]: protects mouse pancreatic islets from cell death induced by oxidative stress; protection from streptozotocin-induced cell death [10]: protects mouse pancreatic islets from streptozotocin-induced cell death
